The source of these data is US8816089B2, “Methods for controlling SR protein phosphorylation, and antiviral agents whose active ingredients comprise agents that control SR protein activity” (priority 2003, dated 2014).

Each structure is given as a SMILES string. pIC50: −log10 of the molar value.

Series [1] has as its system Chinese hamster CHL cells. Briefly: Chromosomal screening test for mutagenicity in mammalian cells.
For the next series, the system named is SRp75 protein. Briefly: In vivo inhibition of SR protein phosphorylation and induction of SR protein degradation, Western blot of HA-SRp75. The format is cell-based, human. As to conditions: Flp-In-293 cells, SRPIN-1 10, 20, or 50 μM with MG132 10 μM, 15 hours. As to the method:
FIG. 4C: Evaluation of in-vivo inhibition of SR protein phosphorylation using SRPIN-1, and evaluation of the induction of the accompanying SR protein degradation. HA-SRp75 plasmid was introduced into Flp-In293 cells. After 36 hours, MG132 (final concentration: 10 μM) and SRPIN-1 (10, 20, or 50 μM) were added to the cells. The cells were incubated for 15 hours and then lysed. After SDS-PAGE, the samples were analyzed by Western blotting using anti-HA antibody. Western analysis was also carried out using an antibody against beta actin as a control protein amount.
HA-SRp75 plasmid (1.0 μg) was introduced into Flp-In-293 cells. After 36 hours, MG132 (final concentration: 10 μM) and SRPIN-1 (10, 20, or 50 μM) were added, and the cells were incubated for 15 hours. Then, the cells were lysed with SDS-PAGE sample buffer. The lysate was used as a protein sample. The sample was fractionated by SDS-PAGE and analyzed by Western blotting using the anti-HA antibody. In addition, as a control for protein amount, Western analysis was carried out using anti-beta actin antibody.

For a further series, the system named is Slc:SD rats. Briefly: Single-dose oral administration toxicity test. On the procedure: The toxicity of SRPIN-1 was tested by single-dose oral administration to rats. SRPIN-1 was orally administered at a dose of 125, 250, 500, 1000, or 2000 mg/kg (in a volume of 10 ml per kg) to Slc:SD rats (five weeks old; Japan SLC, Inc.) whose weight gain and general conditions were normal during the acclimatization period. Each group included two males and two females. The animals were fasted from the evening of the day before administration until about four hours after administration. […] Then, SRPIN-1 was likewise orally administered at a dose of 2000 mg/kg to five male and five female Slc:SD rats (five weeks old).

For a further series, the system named is PKA. As to conditions: final concentration of 10 μM.
The target in a further series is SRPK2 (Homo sapiens, UniProt P78362). Briefly: Kinase phosphorylation assay, same technique as for SRPK1. The class given is biochemical. As to conditions: final concentration of 10 μM.
Sequence of SRPK2 (P78362 whole entry, species assumed): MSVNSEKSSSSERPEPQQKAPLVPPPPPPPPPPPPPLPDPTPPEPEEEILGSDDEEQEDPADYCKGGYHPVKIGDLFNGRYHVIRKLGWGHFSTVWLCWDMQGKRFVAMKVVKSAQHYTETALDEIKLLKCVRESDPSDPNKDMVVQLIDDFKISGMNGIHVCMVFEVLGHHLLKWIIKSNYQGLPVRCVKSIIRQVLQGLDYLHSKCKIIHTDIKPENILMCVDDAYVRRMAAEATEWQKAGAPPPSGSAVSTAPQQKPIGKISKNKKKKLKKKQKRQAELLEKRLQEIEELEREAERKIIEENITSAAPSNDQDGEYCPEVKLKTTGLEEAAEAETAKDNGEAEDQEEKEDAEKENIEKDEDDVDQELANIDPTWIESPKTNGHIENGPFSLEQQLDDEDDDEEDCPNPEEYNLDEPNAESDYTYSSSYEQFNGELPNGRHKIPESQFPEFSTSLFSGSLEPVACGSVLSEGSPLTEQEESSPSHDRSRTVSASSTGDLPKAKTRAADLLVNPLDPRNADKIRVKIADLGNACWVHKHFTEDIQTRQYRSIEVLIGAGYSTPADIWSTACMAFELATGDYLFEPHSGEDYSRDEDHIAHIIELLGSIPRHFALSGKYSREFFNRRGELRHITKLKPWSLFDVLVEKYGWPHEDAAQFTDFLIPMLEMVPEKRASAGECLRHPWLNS
The target in a further series is PRP4 (Homo sapiens, UniProt Q13523). Described as above. The format is biochemical. As to conditions: final concentration of 10 μM.
Sequence of PRP4 (Q13523 whole entry): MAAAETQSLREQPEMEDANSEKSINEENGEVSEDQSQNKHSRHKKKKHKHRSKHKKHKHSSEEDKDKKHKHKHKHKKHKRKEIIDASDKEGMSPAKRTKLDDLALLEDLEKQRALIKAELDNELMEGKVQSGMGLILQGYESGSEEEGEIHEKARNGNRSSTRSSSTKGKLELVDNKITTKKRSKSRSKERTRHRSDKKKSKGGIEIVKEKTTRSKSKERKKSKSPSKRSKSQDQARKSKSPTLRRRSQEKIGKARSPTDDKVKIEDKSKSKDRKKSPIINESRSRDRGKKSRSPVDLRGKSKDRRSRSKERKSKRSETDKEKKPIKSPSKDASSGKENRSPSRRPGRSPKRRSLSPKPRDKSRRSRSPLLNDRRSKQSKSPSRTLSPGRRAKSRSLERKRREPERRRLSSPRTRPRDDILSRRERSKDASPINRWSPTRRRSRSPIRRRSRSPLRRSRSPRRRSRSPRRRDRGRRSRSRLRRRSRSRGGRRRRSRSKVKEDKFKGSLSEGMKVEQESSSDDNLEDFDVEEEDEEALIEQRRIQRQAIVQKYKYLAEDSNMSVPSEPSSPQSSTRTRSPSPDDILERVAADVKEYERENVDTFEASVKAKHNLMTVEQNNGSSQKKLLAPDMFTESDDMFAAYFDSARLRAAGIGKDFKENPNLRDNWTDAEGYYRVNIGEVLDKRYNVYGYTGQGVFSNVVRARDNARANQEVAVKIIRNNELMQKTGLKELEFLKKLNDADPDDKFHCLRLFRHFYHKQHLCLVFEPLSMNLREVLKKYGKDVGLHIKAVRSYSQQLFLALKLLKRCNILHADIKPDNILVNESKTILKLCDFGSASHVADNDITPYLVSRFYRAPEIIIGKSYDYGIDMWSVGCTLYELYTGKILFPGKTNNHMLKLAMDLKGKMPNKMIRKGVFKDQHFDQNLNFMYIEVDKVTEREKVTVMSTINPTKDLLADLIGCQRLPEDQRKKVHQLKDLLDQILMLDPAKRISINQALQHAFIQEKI
For a further series, the target named is T1, SRPK1 (Homo sapiens, UniProt Q96SB4).
T1 construct: made in house; host or cells: E. coli
T1 sequence (Q96SB4 whole entry, species assumed): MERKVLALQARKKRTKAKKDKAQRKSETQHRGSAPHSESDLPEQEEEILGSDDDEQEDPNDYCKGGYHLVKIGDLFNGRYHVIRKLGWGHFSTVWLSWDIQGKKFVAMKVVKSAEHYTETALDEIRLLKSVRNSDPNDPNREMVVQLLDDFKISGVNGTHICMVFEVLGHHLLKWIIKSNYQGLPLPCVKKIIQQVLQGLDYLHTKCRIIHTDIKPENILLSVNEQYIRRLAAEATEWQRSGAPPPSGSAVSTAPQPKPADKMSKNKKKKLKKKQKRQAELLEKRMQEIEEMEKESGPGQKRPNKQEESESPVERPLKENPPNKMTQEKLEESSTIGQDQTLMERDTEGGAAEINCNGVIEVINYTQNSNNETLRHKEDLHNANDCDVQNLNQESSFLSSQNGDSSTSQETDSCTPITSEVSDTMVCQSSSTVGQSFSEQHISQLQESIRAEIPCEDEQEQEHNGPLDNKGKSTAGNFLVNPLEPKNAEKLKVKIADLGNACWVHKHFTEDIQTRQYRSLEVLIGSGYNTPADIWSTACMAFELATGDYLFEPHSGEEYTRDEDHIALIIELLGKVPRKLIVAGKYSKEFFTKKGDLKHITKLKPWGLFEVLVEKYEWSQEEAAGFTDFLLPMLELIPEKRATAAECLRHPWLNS
Briefly: SRPK1 phosphorylation activity assay with RS peptide and [γ-32P]ATP. The format is biochemical.

The subject of a further series is sindbis virus. The class given is cell-based.
In a further series the test system is SARS virus (FFM-1). The format is cell-based.
A further series relates to Cytomegalovirus. As to conditions: HFL1 cells.
Another series relates to PKC. Briefly: Kinase phosphorylation assay, same technique as for SRPK1. Particulars: final concentration of 10 μM. The format is biochemical.
The next series deals with HIV. Briefly: HIV infection experiment in MT-4 cells, HIVp24 by Lumipulse ELISA. Particulars: supernatant after 48 hours.

In the case of `O=C(Nc1cc(C(F)(F)F)ccc1N1CCCCC1)c1ccncc1` [Compound No. 340, N-[2-(1-piperidinyl)-5-(trifluoromethyl)phenyl]isonicotinamide], the “increase in the number of cells with structural and numerical chromosomal abnormalities” value in series [1] (continuous treatment method (24 hours), 5, 1.58, or 0.5 mg/ml) is “negative (When the frequency of cell abnormality was less than 5%, the testing substance was judged to be negative)”; in series [1] (short treatment method (+S9 mix, six hours), 5, 1.58, or 0.5 mg/ml) it was “negative (When the frequency of cell abnormality was less than 5%, the testing substance was judged to be negative)”. Further, the “HA antibody signal (HA-SRp75)” value in the series on SRp75 protein is “weakened depending on the concentration of SRPIN-1”. The death result is “none of the male and female rats died” with Slc:SD rats (oral 2000 mg/kg, observed for 14 days); “None of the male and female rats died” in the series on Slc:SD rats (oral 125, 250, 500, 1000, or 2000 mg/kg, two days after administration). Moreover, the general condition entry in the series with Slc:SD rats (rat, in vivo, po, 2000 mg/kg) is given as “no abnormalities were detectable in their general condition”. The “inhibitory effect on PKA” value in the series with PKA is given as “did not exhibit an inhibitory effect”. Moreover, the “inhibitory effect on SRPK2” value against SRPK2 is “did not exhibit an inhibitory effect”. For the same compound, on PRP4, the “inhibitory effect on PRP4” value is “did not exhibit an inhibitory effect”. Moreover, the negative logarithm of the IC50 (pIC50) against SRPK1 was ~6.40. For the same compound, the “cell damage caused by sindbis virus propagation” value in the series with sindbis virus is reported as “dramatically suppressed”. Also, the “propagation of sindbis virus (plaque assay)” value in the series on sindbis virus is on record as “significantly suppressed the propagation of sindbis virus in a concentration-dependent manner”. Further, the “SARS virus propagation, concentration dependence (plaque assay)” value with SARS virus (FFM-1) is on record as “suppress SARS virus propagation in a concentration-dependent manner”. Besides, the “SARS virus propagation (plaque assay)” value with SARS virus (FFM-1) (Vero cells, 40 μM, 48 hours) is “significantly suppressed SARS virus propagation”. Further, the “viral propagation-suppressing effect compared with Compound No. 349” value with SARS virus (FFM-1) (Vero cells, SARS virus) is listed as “stronger than that of the analog compound (Compound No. 349)”. In addition, the “morphological changes and cell death caused by cytomegalovirus infection” value in the series on Cytomegalovirus (20 μM, seven days after infection) is listed as “neither abnormal morphological changes nor cell death were detectable”. The “morphological changes induced by the compound” value in the series on Cytomegalovirus (40 μM) is “Partial morphological changes thought to be induced by SRPIN-1 were detectable”. Besides, the “inhibitory effect on PKC” value in the series with PKC is “did not exhibit an inhibitory effect”. The “effect in suppressing HIV replication (HIVp24)” value in the series with HIV (MT-4 cells, 5, 10, or 20 μM) was “strong effects in suppressing HIV propagation”. Also, in the series on HIV (MT-4 cells, SRPIN-1 0.5, 10, or 20 μM), the “amount of HIVp24” value is “decreased in an SRPIN-1 concentration-dependent manner”.
